The record followed here is article PMC11267533, “Ligandability at the Membrane Interface of GPx4 Revealed through a Reverse Micelle Fragment Screening Platform” (JACS Au, 2024).

Structures are written as SMILES.

A short description of data set [1]: Fragment partitioning in DLPC/DPC mmRMs by 2D 1H-1H NOESY. The class given is physicochemical. To be noted: 5 mM fragment, deuterated pentane and hexanol, no GPx4. The protocol:
We sought to understand the potential membrane partitioning of these fragments by evaluating their behavior in mmRMs, again using fragments 1, 5, and 6 as our benchmarks. To evaluate fragment partitioning in the mmRM system, 2D ^1H–^1H NOESY experiments were performed, which report on the spatial proximity of intra- and intermolecular nuclei. […] The mmRMs were constructed from deuterated pentane and hexanol to reduce solvent signal and associated NOESY artifacts, which were still present, but NOESY measurements were possible.[60] […] Fragment 5 was the most hydrophobic fragment hit from this screen with a predicted cLog D of ∼2. […] A lack of NOEs to pentane is due to the necessity of using deuterated pentane for artifact reduction and attempts to directly observe solvent NOEs failed. The most hydrophilic fragment, fragment 6 with a predicted cLog D of about −2, is expected to predominantly have intermolecular interactions with the water phase of the mmRM (Figures 5c and S4c). However, interference from the water peak introduced streaking and precluded the visualization of clear cross-peaks.
Partitioning coefficients for fragment hits and analogues were calculated using a Marvin Log D calculator (Chemaxon) and were used to prioritize fragments for 2D NOESYs. mmRMs were premade as previously described and loaded with 5 mM dried fragment 1, 5, or 6 before shaking overnight. A high concentration of fragments is needed for these experiments to observe the intermolecular NOEs between the fragments and the membrane model components. For the DHPC/DMPC samples, the q = 1.0 bicelles were constructed routinely,[55] as described in the Supporting Information, with an additional step to ensure the complete removal of water before experimentation. An aliquot of buffer (100 mM Bis-Tris pH 6.0, 100 mM NaCl, and 10 mM DTT) was frozen and freeze-dried overnight to remove residual water. The dried buffer was then resuspended in 100% D2O, mixed, and frozen before another round of freeze-drying. […]

Data set [2] has as its target T1, aqueous (water-solubilized) GPx4 (Homo sapiens, UniProt P36969, U73G).
T1 construct: Truncated U46G-GPx4 with a TEV cleavable poly-histidine tag was inserted into vector; poly-histidine tag with TEV cleavage site; host or cells: BL21 (DE3) E. coli
T1 sequence (P36969 1-170 isoform P36969-2 U46G): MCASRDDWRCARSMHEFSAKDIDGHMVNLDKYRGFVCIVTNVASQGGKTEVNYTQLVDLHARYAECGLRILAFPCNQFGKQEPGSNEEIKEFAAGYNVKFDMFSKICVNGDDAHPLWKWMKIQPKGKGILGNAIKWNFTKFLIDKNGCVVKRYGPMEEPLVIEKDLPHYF
Kind of data set: 15N-HSQC CSP binding experiment with GPx4 in bulk aqueous conditions. The conditions noted are these: for Binding to aqueous GPx4 (CSPs versus mmRM): 400 μM fragment, 100 μM GPx4, 1% DMSO; for Binding to aqueous GPx4 (CSPs): 15 mM fragment, 100 μM GPx4, 5% DMSO. The protocol: Next, we sought to understand whether fragment hits were solely bound to the membrane-embedded form of GPx4 or could also bind to the aqueous form. We performed aqueous binding experiments with 3 fragment hits with varying hydrophobicities. Of the fragment hits with Kd < 1 mM, the most hydrophobic fragment (fragment 5, cLog D 2.05, 5-hydroxy-1,3-benzoxathiol-2-one) and a hydrophilic fragment with the strongest affinity (fragment 6, cLog D −2.14, (2-methoxyethyl)(4-pyridinylmethyl)amine hydrochloride) were selected, along with a compound with an amphipathic structure and only modest hydrophobicity (fragment 1, cLog D 1.05, 4-(phenylamino)-1,2-dihydropyridin-2-one). Aqueous GPx4 was combined with 400 μM of either fragments 1, 5, or 6 to directly compare to the mmRM experiments. […] Since our fragments have variable degrees of solubility and partitioning, we realized that a hydrophilic fragment like 6 may partition into the water core of the mmRM, essentially causing a concentration effect as observed previously.[32],[33] To rule this out, the concentration of the fragments was increased to 15 mM in an aqueous sample, which would be the effective concentration if all of the fragments partitioned completely into the RM water core. […] DLS measurements were also collected to check for fragment aggregation in the aqueous conditions.[58] […] Inspection of ^1H NMR spectra confirmed that the aggregation observed at high concentration of fragments 1 and 5 is a small portion of the overall fragment concentration and that most of the fragment is in solution.
Fragments 1, 5, and 6 were selected to perform proof-of-concept experiments in bulk aqueous conditions. 400 μM and 15 mM aliquots of fragment were vacuum-dried overnight to remove excess DMSO. An apo GPx4 reference was collected with 1% DMSO or 5% DMSO to ensure that CSP calculations took into account DMSO needed for fragment solubilization. 100 μM GPx4 was added to the dried fragments, and DMSO was added to a total of 1% for the 400 μM and 5% for the 15 mM fragment experiments. These percentages were the lowest amounts needed to solubilize the fragments in solution. Prior to experimentation, the pH of the sample was checked to ensure that no change was observed upon the addition of the fragments. However, the 100 mM Bis-Tris at pH 6.0 ensured that the pH was not altered. ^15N-HSQC experiments were collected, and CSPs were analyzed and compared to the top-shifting resonances determined from the mmRM experiments. DLS measurements were collected to assess fragment aggregation in the aqueous conditions using a Malvern Zetasizer Nano-S instrument.

Take `COCCNCc1ccncc1.Cl` [Fragment 6, (2-methoxyethyl)(4-pyridinylmethyl)amine hydrochloride]: in data set [1], the “Partitioning in mmRM (intermolecular NOEs)” value (from here on “Partitioning in mmRM”) is reported as “prefers to reside in the water core of the mmRM”. Further, in data set [2], the “Binding to aqueous GPx4 (CSPs versus mmRM)” value (“Binding … (CSPs versus mmRM)” for short) is “do not bind strongly to the aqueous form of the protein” and the “Binding to aqueous GPx4 (CSPs)” value is reported as “neither produced significant CSPs”.

For `O=c1oc2c(-c3ccc(Cl)c(Cl)c3)cc(O)cc2s1` [Analog 5.5], the “CSPs of aqueous GPx4” value in data set [2] (400 μM analogue, 1.5% DMSO) was “little to no shifting”.

In the case of `O=c1oc2ccc(O)cc2s1` [Fragment 5, 5-hydroxy-1,3-benzoxathiol-2-one], the “Partitioning in mmRM” value in data set [1] was “the majority of the fragment must reside in the alkane phase of the reverse micelle”. Further, in data set [2], the “Binding … (CSPs versus mmRM)” value is listed as “do not bind strongly to the aqueous form of the protein” and the “Binding to aqueous GPx4 (CSPs)” value is reported as “does produce some CSPs that could be detected by a soluble screen”.

As for `O=c1cc(Nc2ccccc2)cc[nH]1` [Fragment 1, 4-(phenylamino)-1,2-dihydropyridin-2-one], the “Partitioning in mmRM” value in data set [1] was “clear NOE cross-peaks to the surfactant shell”. In data set [2], the “Binding … (CSPs versus mmRM)” value is “do not bind strongly to the aqueous form of the protein” and the “Binding to aqueous GPx4 (CSPs)” value was “neither produced significant CSPs”.
